According to patent publication US20240016881A1, “Coronavirus Therapy” (priority 2020, published 2024):
Values joined by “and” are separate entries in the source; they are usually repeats but may differ in a detail not shown here. Equal entries are not always repeated. Where no end group is shown, it is not given here.

Legend:
[1] = system: isolated rat islet cultures; assay: Glucagon levels secreted from isolated rat islet cultures, medium plus NDX-90 vs medium alone; assay type: cell-based; conditions: for Glucagon level (pg/ml) Medium plus NDX-90: NDX-90 1 μg/ml, 11 mmol/L glucose; for Percentage reduction of glucagon secretion: vs medium alone
Experimental: Isolated islets were suspended in RPMI 1640 containing 11 mmol/L (200 mg/dL) glucose and 10% FCS. The glucose concentration simulates a diabetic environment. NDX-90 was dissolved in the culture medium and added to the appropriate wells at a final concentration of 1 μg/ml. After the specified incubation times, samples were removed for glucagon measurements using Quantikine ELISA Immunoassay (R&D Systems).
The inventor measured glucagon levels secreted from isolated rat islet cultures, to determine whether NDX-90 was capable of reducing glucagon levels.

[2] = Fasting plasma glucagon in subjects with Type 2 diabetes treated with NDX-90 peptide; assay type: in vivo, human
From the text: The inventor then measured the effect of NDX-90 peptide treatment over several months on fasting plasma glucagon levels in subjects with Type 2 diabetes.

[3] = ELISA binding of NDX-90 peptide to cardiolipin-coated microtitre plate
From the text: Each mean and standard deviation is for three observations.

[4] = system: buccal tissue culture inserts; assay: Buccal tissue permeability (cell permeation, HPLC peak area of supernatant); assay type: in vitro ADME
Experimental: Buccal tissue culture inserts were transferred from the original tissue culture 24-well plates (maintained at 4° C. in sealed bags containing 5% CO2) under sterile conditions into wells of a fresh 24-well plate containing 1.0 ml serum free medium pre-warmed to 37° C. The plate was incubated in a humidified incubator at 37° C. in a 5% CO2 atmosphere for one hour as a pre-equilibration procedure prior to dosing. After removal from the incubator, any culture medium over the surface of the tissue was carefully removed and replaced with 40 μL of appropriately diluted peptide solution in serum free culture medium. The plate was incubated for further 30 minutes at 37° C. in a 5% CO2 atmosphere. The plate was removed from the incubator and supernatant samples were taken and analysed by HPLC. The main peak areas of the supernatants were compared to those of the pre-incubation stock samples.
The inventor next measured buccal tissue permeability of NDX-90 peptide, to determine its uptake.

soluble ACE2 = assay: Soluble ACE2 ELISA in cultures of human islet cells from Type 2 diabetes tissue donors; assay type: cell-based; conditions: for % reduction soluble ACE2 100-(T/Cx100): vs control cultures
Experimental: The inventor next measured the effect of NDX-90 peptide on soluble ACE2 levels in cultures of human islet cells from Type 2 diabetes tissue donors. Human pancreatic islet cells were cultured in 24-well tissue culture plates. Two series of cultures were set up. NDX-90 peptide solution was added to one series and an equivalent amount of culture medium was added to the second series. Supernatant samples were removed from the test and control cultures at 4, 24 and 48 hours after addition of the treatment. Supernatant samples were removed only once from each test and control well for each time point. The samples were tested for soluble ACE2 by the use of a commercial ELISA kit according to the manufacturer's instructions.

QQYNSYPLT (also: dimer) [NDX-90, b142 says NDX-90 is a dimer]
Difference (pg/ml) medium alone vs medium plus NDX-90 ([1]; 4 hours): 203.0 pg/mL | Glucagon level (pg/ml) Medium plus NDX-90 ([1]; 4 hours): 419.3 ± 2.5 pg/mL | Percentage reduction of glucagon secretion ([1]; 4 hours): 32% and 32.4% | Difference (pg/ml) medium alone vs medium plus NDX-90 ([1]; 24 hours): 102.9 pg/mL | Glucagon level (pg/ml) Medium plus NDX-90 ([1]; 24 hours): 149.6 ± 6.7 pg/mL | Percentage reduction of glucagon secretion ([1]; 24 hours): 40.9% | Glucagon level (pg/ml) Medium plus NDX-90 ([1]; 48 hours): 63.4 ± 1.3 pg/mL | Percentage reduction of glucagon secretion ([1]; 48 hours): 0% | Improvement in fasting glucagon towards normality ([2]; 9.61 pg/ml relative to literature excess of 12.2 pg/ml in Type 2 diabetes vs nondiabetic controls): 78.8% | Difference baseline vs treated fasting plasma glucagon ([2]; day 1 vs mean of days 43, 99 and 113, P = 0.009, listed as NDX-90 peptide): 9.61 pg/mL | Baseline ± sd fasting plasma glucagon ([2]; mean baseline on day 1, n = 23, Type 2 diabetes): 103 ± 38.3 pg/mL | Treated ± sd fasting plasma glucagon ([2]; mean of measurements on days 43, 99 and 113, n = 23, Type 2 diabetes): 93.47 ± 32.3 pg/mL | Binding to cardiolipin [3]: has the capacity to bind to cardiolipin | Ratio Test/Control (cardiolipin / alcohol optical density) [3]: 2.23 | Optical density reading in ELISA, cardiolipin-coated plate ([3]; mean and standard deviation for three observations): 0.254 ± 0.012 | Transmissibility across / uptake by buccal tissue [4]: efficient uptake | Transmissibility % ([4]; Table 5 screening, 30 minutes): 94.1% | Peak Area by HPLC of Peptides in solution Pre-overlay ([4]; Table 5 screening, stock before incubation): 4142 | Peak Area by HPLC of Peptides in solution Post-overlay ([4]; Table 5 screening, supernatant after 30 minutes at 37° C.): 243 | Peak Area by HPLC R1 ([4]; Table 6, replicate culture 1): 276 | Transmissibility T % (R1) ([4]; Table 6, replicate culture 1): 93.3% | Peak Area by HPLC R3 ([4]; Table 6, replicate culture 3): 0 | Transmissibility T % (R3) ([4]; Table 6, replicate culture 3): 100% | Peak Area by HPLC Pre-overlay ([4]; Table 6 triplicate cultures, stock): 4142 | % reduction soluble ACE2 100-(T/Cx100) (soluble ACE2; 4 hours): 5.3% | % reduction soluble ACE2 100-(T/Cx100) (soluble ACE2; 4 hours, listed as NDX-90 Peptide): 5.3% | % reduction soluble ACE2 100-(T/Cx100) (soluble ACE2; 24 hours): 6.25% | % reduction soluble ACE2 100-(T/Cx100) (soluble ACE2; 24 hours, listed as NDX-90 Peptide): 6.25% | Reduction of soluble ACE2 (soluble ACE2; 48 hours): No further reduction
